Where a name gives a salt, the structure may show the parent alone.
What was measured:
HORVW (winter barley) = test: Postemergence herbicidal safening, greenhouse, visual injury; format: in vivo, Hordeum vulgare; details: applied alone at 140 g/ha; 20-22 d; listed as (1) TEA salt
Experimental: Seeds of the desired test plant species were planted in Sun Gro MetroMix® 306 planting mixture, which typically has a pH of 6.0 to 6.8 and an organic matter content of about 30 percent, in plastic pots with a surface area of 103.2 square centimeters (cm^2). When required to ensure good germination and healthy plants, a fungicide treatment and/or other chemical or physical treatment was applied. The plants were grown for 7-36 days (d) in a greenhouse with an approximate […] photoperiod which was maintained at about 18° C. during the day and 17° C. during the night. Nutrients and water were added on a regular basis and supplemental lighting was provided with overhead metal halide 1000-Watt lamps as necessary. The plants were employed for testing when they reached the second or third true leaf stage. […]
The treated plants and control plants were placed in a greenhouse as described above and watered by sub-irrigation to prevent wash-off of the test compounds. After 20-22 d, the condition of the test plants as compared with that of the control plants was determined visually and scored on a scale of 0 to 100 percent where 0 corresponds to no injury and 100 corresponds to complete kill. […]

[1] = system: TRZDU = Triticum durum (durum wheat); test: as above; format: in vivo; details: applied alone at 140 g/ha; 20-22 d
Experimental: (§1) Seeds of the desired test plant species were planted in Sun Gro MetroMix® 306 planting mixture, which typically has a pH of 6.0 to 6.8 and an organic matter content of about 30 percent, in plastic pots with a surface area of 103.2 square centimeters (cm^2). When required to ensure good germination and healthy plants, a fungicide treatment and/or other chemical or physical treatment was applied. The plants were grown for 7-36 days (d) in a greenhouse with an approximate […] photoperiod which was maintained at about 18° C. during the day and 17° C. during the night. Nutrients and water were added on a regular basis and supplemental lighting was provided with overhead metal halide 1000-Watt lamps as necessary. The plants were employed for testing when they reached the second or third true leaf stage.
(§2) Weighed amounts of esters (methyl) or salts (TEA [triethylammonium], potassium [K]) of 4-amino-3-chloro-6-(4-chloro-2-fluoro-3-methoxyphenyl)pyridine-2-carboxylic acid (Compound 1) were dissolved in a volume of 97:3 volume/volume (v/v) acetone/dimethylsulfoxide (DMSO) to obtain stock solutions. […] The concentrated stock solutions were diluted with an aqueous mixture of 1.5% v/v of Agri-dex crop oil concentrate to provide the appropriate application rates. Compound requirements are based upon a 12 mL application volume at a rate of 187 liters per hectare (L/ha). Stocks solutions of the safeners were prepared following the same procedure. Spray solutions of the safeners and experimental compound mixtures were prepared by adding the appropriate volume of both stock solutions to the appropriate amount of dilution solution to form a 12 mL spray solution with active ingredients in two-way combinations. Formulated compounds were applied to the plant material with an overhead Mandel track sprayer equipped with 8002E nozzles calibrated to deliver 187 L/ha over an application area of 0.503 square meters (m^2) at a spray height of 18 inches (43 centimeters (cm)) above average plant canopy. Control plants were sprayed in the same manner with the solvent blank.
(§3) The treated plants and control plants were placed in a greenhouse as described above and watered by sub-irrigation to prevent wash-off of the test compounds. After 20-22 d, the condition of the test plants as compared with that of the control plants was determined visually and scored on a scale of 0 to 100 percent where 0 corresponds to no injury and 100 corresponds to complete kill.
(§4) Colby's equation was used to determine the herbicidal effects expected from the mixtures (Colby, S. R., Calculation of the synergistic and antagonistic response of herbicide combinations. Weeds 1967, 15, 20-22.).
(§5) The following equation was used to calculate the expected activity of mixtures containing two active ingredients, A and B: Expected=A+B−(A×B/100)
(§6) A=observed efficacy of active ingredient A at the same concentration as used in the mixture.
(§7) B=observed efficacy of active ingredient B at the same concentration as used in the mixture.

[2] = system: HORVS = Hordeum vulgare (spring barley); test: as above; format: in vivo; details: 20-22 d, listed as (1) TEA salt
Experimental: as §1, §2, §3, §4, §5, §6, §7

[3] = system: TRZAW = Triticum aestivum (winter wheat); test: as above; format: in vivo; details: applied alone at 140 g/ha; 20-22 d; listed as (1) TEA salt
Experimental: as §1, §2, §3, §4, §5, §6, §7

[4] = system: TRZAS = Triticum aestivum (spring wheat); test: as above; format: in vivo; details: 20-22 d, listed as (1) TEA salt
Experimental: as §1, §2, §3, §4, §5, §6, §7

PAPRH (corn poppy) = test: Postemergence herbicidal activity, greenhouse, visual injury; format: in vivo, Papaver rhoeas; details: applied alone at 140 g/ha; 20-22 d
Experimental: as §1, §2, §3, §4, §5, §6, §7

[5] = system: LAMPU (purple deadnettle); test: as above; format: in vivo, Lamium purpureum; details: applied alone at 140 g/ha; 20-22 d
Experimental: as §1, §2, §3, §4, §5, §6, §7

POLCO (wild buckwheat) = test: as above; format: in vivo, Polygonum convolvulus; details: applied alone at 140 g/ha; 20-22 d
Experimental: as §1, §2, §3, §4, §5, §6, §7

[6] = system: MATCH = Matricaria chamomila (scented mayweed); test: as above; format: in vivo; details: applied alone at 140 g/ha; 20-22 d; listed as (1) TEA salt
Experimental: as §1, §2, §3, §4, §5, §6, §7

[7] = system: VIOTR = Viola tricolor (wild pansy); test: as above; format: in vivo; details: applied alone at 140 g/ha; 20-22 d; listed as (1) TEA salt
Experimental: as §1, §2, §3, §4, §5, §6, §7

[8] = system: STEME = Stellaria media (common chickweed); test: as above; format: in vivo; details: applied alone at 140 g/ha; 20-22 d
Experimental: as §1, §2, §3, §4, §5, §6, §7

[9] = system: KCHSC = Kochia scoparia (kochia); test: as above; format: in vivo; details: applied alone at 140 g/ha; 20-22 d; listed as (1) TEA salt
Experimental: as §1, §2, §3, §4, §5, §6, §7

[10] = system: SASKR = Salsola iberica (Russian thistle); test: as above; format: in vivo; details: applied alone at 140 g/ha; 20-22 d; listed as (1) TEA salt
Experimental: as §1, §2, §3, §4, §5, §6, §7

[11] = system: VERPE = Veronica persica (bird's-eye speedwell); test: as above; format: in vivo; details: applied alone at 140 g/ha; 20-22 d; listed as (1) TEA salt
Experimental: as §1, §2, §3, §4, §5, §6, §7

Which “HORVW Ob (observed injury)” value (HORVW (winter barley)) does the source give for COc1c(Cl)ccc(-c2cc(N)c(Cl)c(C(=O)O)n2)c1F [Compound (1) TEA salt, 4-amino-3-chloro-6-(4-chloro-2-fluoro-3-methoxyphenyl)pyridine-2-carboxylic acid] here?
The value was 15%.

What about the “TRZDU Ob (observed injury)” value [1] of the same compound?
Its value is 10%.

And the “HORVS Ob (observed injury)” value ([2]; applied alone at 8.75 g/ha)?
The value was 25%.

And the “HORVS Ob (observed injury)” value ([2]; applied alone at 35 g/ha)?
The value was 23%.

And the “HORVS Ob (observed injury)” value ([2]; applied alone at 140 g/ha)?
The value was 23%.

And the “TRZAW Ob (observed injury)” value [3]?
Its value is 24%.

And the “TRZAS Ob (observed injury)” value ([4]; applied alone at 8.75 g/ha)?
The value was 5%.

What about the “TRZAS Ob (observed injury)” value ([4]; applied alone at 35 g/ha) of the same compound?
Its value is 15%.

What about the “TRZAS Ob (observed injury)” value ([4]; applied alone at 70 g/ha) of the same compound?
The value was 10%.

And the “TRZAS Ob (observed injury)” value ([4]; applied alone at 140 g/ha)?
The value was 27%.

What about the “PAPRH Ob (observed injury)” value (PAPRH (corn poppy)) of the same compound?
The value was 100%.

What about the “LAMPU Ob (observed injury)” value [5] of the same compound?
Its value is 98%.

And the “POLCO Ob (observed injury)” value (POLCO (wild buckwheat))?
Its value is 100%.

And the “MATCH Ob (observed injury)” value [6]?
The value was 84%.

And the “VIOTR Ob (observed injury)” value [7]?
The value was 66%.

What about the “STEME Ob (observed injury)” value [8] of the same compound?
Its value is 88%.

And the “KCHSC Ob (observed injury)” value [9]?
Its value is 95%.

What about the “SASKR Ob (observed injury)” value [10] of the same compound?
Its value is 86%.

And the “VERPE Ob (observed injury)” value [11]?
The value was 89%.
